Assay results reported in patent US20110065208A1, “DETERMINATION AND ESTIMATION OF ABSORPTION AND DISTRIBUTION OF SUBSTANCES IN BRAIN TISSUE” (SOVICELL GMBH, priority 2008, published 2011).
Like-named read-outs stand apart in the source and are kept apart here.

Legend:
[1] = cited from earlier work
[2] = Brain lipid-water partition coefficient log MAbrain (membrane affinity) on immobilized brain lipid membranes; assay type: physicochemical; details: for logMA_brain: Table 6, parameter set for free fraction in brain
Protocol: 440 mg of a brain lipid extract (Avanti Polar Lipids Inc., USA) are dissolved in 50 mL of chloroform. This solution is evaporated under reduced pressure in a glass flask in a rotating rotary evaporator, wherein a thin lipid film deposits on the wall.
The lipid film is swollen overnight in a water vapor atmosphere; subsequently, 88 mL of a buffer (20 mM HEPES, pH 7.0, 30 mM NaCl, 2 mM CaCl2) are added, and the lipid film is vesiculated by means of a high-pressure homogenizer.
5 g of the carrier material provided above are added to the vesicle solution thus produced and incubated overnight. Excess lipid is removed by washing three times with buffer (20 mM HEPES, pH 7.0, 30 mM NaCl, 2 mM CaCl2). Finally, this is followed by rebuffering in PBS (phosphate-buffered saline, 10 mM sodium phosphate, 0.9% NaCl, pH 7.4) and filling up to 25 mL with buffer. The suspension obtained is then used to determine the brain lipid-water partition coefficient, as described below.
To determine the brain lipid-water partition coefficient, a total of 5 wells of a 96-well microtiter plate are filled as follows: • Well 1: 405 μL PBS • Well 2: 375 μL PBS+30 μL suspension (see 2.) • Well 3: 357 μL PBS+48 μL suspension (see 2.) • Well 4: 338 μL PBS+77 μL suspension (see 2.) • Well 5: 405 μL PBS.
To each of these wells, 45 μL of a 500 μM solution of trifluoperazine in PBS/10% DMSO are added, and after mixing by resuspension, the solid body is separated from the supernatant by sedimentation. The concentration of the substance in the supernatant is quantified by UV measurement, and the brain lipid-water partition coefficient log MAbrain is calculated through the following equation: […]
In the equation are: • Vtotal Total volume per well • Vlipid Lipid volume per well • ctotal Substance concentration of wells 1 and 5 without binding partner • cwater Substance concentration in the supernatant of wells 2-4 with binding partner.
To determine the brain lipid-water partition coefficient, two 96-well microtiter plates are filled row by row as follows: • Row 1: 405 μL PBS • Row 2: 375 μL PBS+30 μL suspension (see 2.) • Row 3: 357 μL PBS+48 μL suspension (see 2.) • Row 4: 338 μL PBS+77 μL suspension (see 2.) • Row 5: 285 μL PBS+120 μL suspension (see 2.) • Row 6: 210 μL PBS+195 μL suspension (see 2.) • Row 7: 105 μL PBS+300 μL suspension (see 2.) • Row 8: 405 μL PBS.
A broad binding range is covered by this filling of the plates. […] After mixing by resuspension, the solid body is separated from the supernatant by sedimentation.
The concentration of the substance in the supernatant is quantified by HPLC, and the brain lipid-water partition coefficient log MAbrain is calculated through the abovementioned equation (4), wherein, in this case, Vtotal is the total volume per well, Vlipid is the lipid volume per well, ctotal is the substance concentration of rows 1 and 8 without binding partner, and cwater is the substance concentration in the supernatant of wells 2-7 with binding partner.

[3] = tested on: T1, AGP (α1-acid glycoprotein); test: AGP binding constants (TRANSIL AGP Binding Kit)
T1 construct: fused on or other part: immobilised on silica beads (TRANSIL solid support)

[4] = biological target: HSA (human serum albumin) (Homo sapiens, UniProt P02768); test: HSA binding constants (TRANSIL HSA Binding Kit)
Text: In the equation are: • [drug]bound: Concentration of bound substance • [drug]free: Concentration of free substance in the supernatant • [protein]: Protein concentration in the respective wells.

[5] = log K^B/F, bound to free fraction in blood plasma calculated from KD^HSA and KD^AGP; assay type: in vitro ADME; details: Table 4; calculated with [HSA] 588.2 μM, [AGP] 24.4 μM
Text: The log K^B/F value represents the logarithmized ratio of the bound fraction to the free fraction in blood plasma, which has been approximately calculated from the dissociation constants KD^AGP and KD^HSA according to:
[formula] • fu Free substance concentration in plasma • [drug]total^plasma Total substance concentration in plasma • [HSA]

[6] = Table 6; free fraction in brain; cited from earlier work
[7] = log BB estimated by QSAR equation (9); details: Table 5; validation set, calculated by equation (9)
Protocol: To estimate the plasma-brain partition coefficients, a multilinear regression was carried out according to the equation:
log BB=A*log MAbrain+B*PSA+C*MW+D*log K^B/F+E. (6)

[8] = Table 4, test set for multilinear regression
[9] = Table 1, PBS pH 7.4, quantified by HPLC
[10] = Table 4, repeated parameter set
[11] = Table 5, values from the literature

HSA (human serum albumin), sequence (P02768 25-609): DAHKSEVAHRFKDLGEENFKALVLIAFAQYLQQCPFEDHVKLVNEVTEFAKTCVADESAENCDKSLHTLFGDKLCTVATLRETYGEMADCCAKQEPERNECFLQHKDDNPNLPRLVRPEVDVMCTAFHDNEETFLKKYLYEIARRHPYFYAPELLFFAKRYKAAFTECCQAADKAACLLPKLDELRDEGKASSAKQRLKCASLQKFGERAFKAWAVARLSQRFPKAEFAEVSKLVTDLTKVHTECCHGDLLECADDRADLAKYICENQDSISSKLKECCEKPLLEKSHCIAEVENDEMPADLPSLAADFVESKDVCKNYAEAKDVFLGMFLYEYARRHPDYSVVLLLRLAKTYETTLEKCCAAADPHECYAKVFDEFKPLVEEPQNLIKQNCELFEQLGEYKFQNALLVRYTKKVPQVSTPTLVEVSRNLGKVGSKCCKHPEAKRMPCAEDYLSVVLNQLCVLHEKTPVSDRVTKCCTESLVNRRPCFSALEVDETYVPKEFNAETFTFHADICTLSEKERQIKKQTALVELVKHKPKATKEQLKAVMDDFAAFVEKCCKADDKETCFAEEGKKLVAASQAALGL

| SMILES | logBB [1, 8] | logMAbrain [2, 9] | logMAbrain [2, 10] | Kd [3] | Kd [4] | logK^B/F [5] | fu_brain [6] | also measured |
| --- | --- | --- | --- | --- | --- | --- | --- | --- |
| CC(=O)Oc1ccccc1C(=O)O [Acetylsalicylic acid, acetylsalicylic acid] | −0.5 | 1.40 | 1.40 | 460 µM | 360 µM | 0.23 | – | – |
| CN(C)CCC=C1c2ccccc2CCc2ccccc21 [Amitryptilline, amitryptilline] | – | – | – | – | – | – | 0.009 | logBB_calc [7]: 1.38; logBB [1, 11]: 0.87; logMA_brain [2]: 2.94 |
| Cc1cc(=O)n(-c2ccccc2)n1C [Antipyrine, antipyrine] | −0.1 | 1.33 | 1.33 | – | 2700 µM | −0.54 | – | Kd ([3]; Table 3, quantified by HPLC, read-out: KD^AGP): 380 µM |
| Cn1c(=O)c2c(ncn2C)n(C)c1=O [Caffeine, caffeine] | – | 1.36 | 1.36 | 580 µM | – | – | 0.52 | logMA_brain [2]: 1.36 |
| NC(=O)N1c2ccccc2C=Cc2ccccc21 [Carbamazepine, carbamazepine] | – | – | – | – | – | – | 0.1185 | logBB_calc [7]: −0.09; logBB [1, 11]: 0; logMA_brain [2]: 1.79 |
| CN(C)CCCN1c2ccccc2Sc2ccc(Cl)cc21 [Chlorpromazine, chlorpromazine] | – | 3.70 | 3.70 | 0.72 µM | – | – | 0.002 | logMA_brain [2]: 3.70 |
| CN/C(=N/CCSCc1nc[nH]c1C)NC#N [Cimetidine, cimetidine] | −1.42 | 1.80 | 1.80 | 250 µM | 920 µM | −0.13 | – | – |
| Clc1cccc(Cl)c1N=C1NCCN1 [Clonidine, clonidine] | 0.11 | 1.30 | 1.30 | 69 µM | 1900 µM | −0.17 | – | – |
| CNCCCN1c2ccccc2CCc2ccccc21 [Desipramine, desipramine] | 1.2 | – | – | 5.1 µM | 200 µM | – | – | – |
| CNCCC(Oc1ccc(C(F)(F)F)cc1)c1ccccc1 (stereo not shown) [Fluoxetine, fluoxetine] | – | – | – | – | – | – | 0.004 | logBB_calc [7]: 1.29; logMA_brain [2]: 3.52 |
| O=C(CCCN1CCC(O)(c2ccc(Cl)cc2)CC1)c1ccc(F)cc1 [Haloperidol] | – | – | – | – | – | – | 0.011 | logMA_brain [2]: 2.7 |
| CC(C)Cc1ccc(C(C)C(=O)O)cc1 (stereo not shown) [Ibuprofen, ibuprofen] | −0.18 | 1.70 | 1.70 | 670 µM | – | 3.14 | – | – |
| CN(C)CCCN1c2ccccc2CCc2ccccc21 [Imipramine, imipramine] | 0.83 | – | – | 3.1 µM | 220 µM | – | – | – |
| COc1ccc2c(c1)c(CC(=O)O)c(C)n2C(=O)c1ccc(Cl)cc1 [Indomethacin, indomethacin] | −1.26 | 2.30 | 2.30 | 43 µM | – | 2.97 | – | – |
| CCN(CC)CC(=O)Nc1c(C)cccc1C [Lidocaine, lidocaine] | – | – | – | – | – | – | – | logBB_calc [7]: −0.08 |
| CN1CCN2c3ccccc3Cc3ccccc3C2C1 (stereo not shown) [Mianserin, mianserin] | – | – | – | – | – | – | – | logBB_calc [7]: 1.47; logBB [1, 11]: 0.99 |
| CCCCC1C(=O)N(c2ccccc2)N(c2ccccc2)C1=O [Phenylbutazone, phenylbutazone] | −0.52 | – | – | 70 µM | – | – | – | – |
| O=C1NC(=O)C(c2ccccc2)(c2ccccc2)N1 [Phenytoin] | – | – | – | – | – | – | 0.082 | – |
| CCN(CC)CCOC(=O)c1ccc(N)cc1 [Procaine, procaine] | – | – | – | – | – | – | – | logBB_calc [7]: −0.41; logBB [1, 11]: 0.05 |
| CN(C)CCCN1c2ccccc2Sc2ccccc21 [Promazine, promazine] | 1.23 | 3.20 | 3.20 | 1.6 µM | 99 µM | 1.33 | – | – |
| CC(C)NCC(O)COc1cccc2ccccc12 (stereo not shown) [Propranolol, propranolol] | 0.64 | 2.70 | 2.70 | 5.4 µM | 610 µM | 0.74 | – | – |
| C=C[C@H]1C[N@@]2CC[C@H]1C[C@@H]2[C@@H](O)c1ccnc2ccc(OC)cc12 [Quinidine, quinidine] | – | 2.10 | 2.10 | 13 µM | – | – | – | – |
| CNC(=C[N+](=O)[O-])NCCSCc1ccc(CN(C)C)o1 [Ranitidine, ranitidine] | – | – | – | – | – | – | – | logBB [1, 11]: −1.23 |
| O=C(O)c1ccccc1O [Salicylic acid, salicylic acid] | – | 1.30 | 1.30 | 640 µM | – | 1.37 | – | – |
| Cn1c(=O)c2[nH]cnc2n(C)c1=O [Theophylline, theophylline] | – | – | – | 810 µM | – | – | – | – |
| CSc1ccc2c(c1)N(CCC1CCCCN1C)c1ccccc1S2 (stereo not shown) [Thioridazine] | – | – | – | – | – | – | 0.001 | logMA_brain [2]: 3.74 |
| CN1CCN(CCCN2c3ccccc3Sc3ccc(C(F)(F)F)cc32)CC1 [Trifluoperazine, trifluoperazine] | 1.44 | 4.70 | 4.70 | 0.25 µM | 12 µM | 2.17 | 0.0007 | logMAbrain ([2]; PBS pH 7.4, quantified by UV measurement, 5 wells): 4.7; logMA_brain [2]: 4.70 |
